# According to ChEMBL document CHEMBL3991601, “The target landscape of clinical kinase drugs” (Science, 2017):
# Calls of active or inactive are those of the source. Cut-off read from the data, not from the text of the source, for most assays here: actives have a measured Kd and inactives only a lower limit.
# Columns and labels:
# [1] = biological target: T1, Breakpoint cluster region protein (Homo sapiens, UniProt P11274)
# T1 sequence (P11274 whole entry): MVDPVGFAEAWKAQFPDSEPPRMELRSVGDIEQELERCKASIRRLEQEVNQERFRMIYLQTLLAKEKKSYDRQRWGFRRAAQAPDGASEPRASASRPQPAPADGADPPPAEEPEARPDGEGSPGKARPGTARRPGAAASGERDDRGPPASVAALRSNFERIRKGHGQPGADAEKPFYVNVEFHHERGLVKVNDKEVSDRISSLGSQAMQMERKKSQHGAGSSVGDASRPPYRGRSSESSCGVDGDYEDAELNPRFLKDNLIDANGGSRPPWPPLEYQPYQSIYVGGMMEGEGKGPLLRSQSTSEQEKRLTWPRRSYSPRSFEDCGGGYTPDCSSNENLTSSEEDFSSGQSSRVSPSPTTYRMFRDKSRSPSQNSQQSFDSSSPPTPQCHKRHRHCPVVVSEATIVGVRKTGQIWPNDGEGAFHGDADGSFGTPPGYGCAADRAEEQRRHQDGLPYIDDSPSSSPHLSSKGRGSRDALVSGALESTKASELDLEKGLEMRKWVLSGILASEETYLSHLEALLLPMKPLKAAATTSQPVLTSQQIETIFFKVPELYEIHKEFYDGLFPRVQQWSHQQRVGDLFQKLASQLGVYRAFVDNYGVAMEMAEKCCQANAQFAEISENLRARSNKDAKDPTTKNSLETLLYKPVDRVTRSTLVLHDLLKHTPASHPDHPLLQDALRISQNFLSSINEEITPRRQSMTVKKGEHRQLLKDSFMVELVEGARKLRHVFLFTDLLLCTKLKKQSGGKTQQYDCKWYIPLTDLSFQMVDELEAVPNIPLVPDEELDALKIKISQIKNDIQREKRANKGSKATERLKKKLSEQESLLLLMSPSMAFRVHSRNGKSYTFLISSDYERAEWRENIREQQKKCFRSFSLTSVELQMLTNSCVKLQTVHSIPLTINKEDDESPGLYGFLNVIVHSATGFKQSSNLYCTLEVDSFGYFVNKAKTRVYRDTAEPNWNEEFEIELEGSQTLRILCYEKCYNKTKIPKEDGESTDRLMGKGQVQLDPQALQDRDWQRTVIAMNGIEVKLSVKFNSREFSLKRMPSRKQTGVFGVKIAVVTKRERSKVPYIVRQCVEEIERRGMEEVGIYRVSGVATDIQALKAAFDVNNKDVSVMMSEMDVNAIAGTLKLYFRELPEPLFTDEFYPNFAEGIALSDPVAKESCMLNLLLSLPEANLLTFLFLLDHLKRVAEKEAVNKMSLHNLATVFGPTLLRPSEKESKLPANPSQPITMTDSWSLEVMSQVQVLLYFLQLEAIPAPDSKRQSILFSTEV
# [2] = biological target: Serine/threonine-protein kinase B-raf (Homo sapiens, UniProt P15056)
# [3] = biological target: Citron Rho-interacting kinase (Homo sapiens, UniProt O14578)
# [4] = biological target: DnaJ homolog subfamily A member 1 (Homo sapiens, UniProt P31689)
# [5] = biological target: Glycogen synthase kinase-3 alpha (Homo sapiens, UniProt P49840)
# [6] = biological target: T2, Dual specificity mitogen-activated protein kinase kinase 6 (Homo sapiens, UniProt P52564)
# T2 sequence (P52564 whole entry): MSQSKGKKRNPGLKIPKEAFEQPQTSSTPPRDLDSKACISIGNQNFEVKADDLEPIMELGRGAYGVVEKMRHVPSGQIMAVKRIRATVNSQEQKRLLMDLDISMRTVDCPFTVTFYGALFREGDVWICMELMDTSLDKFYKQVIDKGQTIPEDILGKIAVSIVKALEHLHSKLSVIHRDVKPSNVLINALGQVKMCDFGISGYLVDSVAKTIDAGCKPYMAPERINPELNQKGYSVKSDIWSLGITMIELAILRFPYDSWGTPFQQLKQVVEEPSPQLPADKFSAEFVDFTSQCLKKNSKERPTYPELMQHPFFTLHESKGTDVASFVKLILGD
# [7] = biological target: Mitogen-activated protein kinase kinase kinase kinase 4 (Homo sapiens, UniProt O95819)
# [8] = biological target: Mitogen-activated protein kinase 14 (Homo sapiens, UniProt Q16539)
# [9] = biological target: Macrophage-stimulating protein receptor (Homo sapiens, UniProt Q04912)
# [10] = biological target: T3, Serine/threonine-protein kinase Nek2 (Homo sapiens, UniProt P51955)
# T3 sequence (P51955 whole entry): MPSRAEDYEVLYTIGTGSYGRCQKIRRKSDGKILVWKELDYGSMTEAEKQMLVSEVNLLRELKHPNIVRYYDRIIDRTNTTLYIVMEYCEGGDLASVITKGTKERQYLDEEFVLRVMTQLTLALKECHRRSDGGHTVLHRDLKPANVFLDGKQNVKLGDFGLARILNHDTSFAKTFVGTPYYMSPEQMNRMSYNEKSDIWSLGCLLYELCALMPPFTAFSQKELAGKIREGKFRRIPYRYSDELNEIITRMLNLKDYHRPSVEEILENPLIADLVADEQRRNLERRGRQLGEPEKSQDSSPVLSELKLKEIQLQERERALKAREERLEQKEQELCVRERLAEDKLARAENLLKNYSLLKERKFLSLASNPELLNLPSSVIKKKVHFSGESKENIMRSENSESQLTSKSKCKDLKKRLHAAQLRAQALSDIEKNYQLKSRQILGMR
# [11] = biological target: T4, Succinate--CoA ligase [ADP-forming] subunit beta, mitochondrial (Homo sapiens, UniProt Q9P2R7)
# T4 sequence (Q9P2R7 whole entry): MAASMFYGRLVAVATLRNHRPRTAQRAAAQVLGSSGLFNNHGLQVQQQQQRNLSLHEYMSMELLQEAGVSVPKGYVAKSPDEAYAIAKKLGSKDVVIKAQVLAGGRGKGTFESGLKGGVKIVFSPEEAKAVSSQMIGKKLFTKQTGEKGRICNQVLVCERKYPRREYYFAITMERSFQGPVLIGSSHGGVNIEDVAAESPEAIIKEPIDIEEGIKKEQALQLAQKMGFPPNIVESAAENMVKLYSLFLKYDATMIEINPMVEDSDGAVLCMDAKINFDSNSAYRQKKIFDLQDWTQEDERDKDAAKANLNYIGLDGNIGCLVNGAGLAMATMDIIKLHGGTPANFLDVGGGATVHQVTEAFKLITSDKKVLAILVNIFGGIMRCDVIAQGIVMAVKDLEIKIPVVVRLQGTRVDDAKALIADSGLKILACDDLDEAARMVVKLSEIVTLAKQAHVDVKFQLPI
# [12] = biological target: High affinity nerve growth factor receptor (Homo sapiens, UniProt P04629)
# Note: in the data inactive means no Kd found up to 30 µM.
# Chain of Mitogen-activated protein kinase 14 (Q16539 whole entry): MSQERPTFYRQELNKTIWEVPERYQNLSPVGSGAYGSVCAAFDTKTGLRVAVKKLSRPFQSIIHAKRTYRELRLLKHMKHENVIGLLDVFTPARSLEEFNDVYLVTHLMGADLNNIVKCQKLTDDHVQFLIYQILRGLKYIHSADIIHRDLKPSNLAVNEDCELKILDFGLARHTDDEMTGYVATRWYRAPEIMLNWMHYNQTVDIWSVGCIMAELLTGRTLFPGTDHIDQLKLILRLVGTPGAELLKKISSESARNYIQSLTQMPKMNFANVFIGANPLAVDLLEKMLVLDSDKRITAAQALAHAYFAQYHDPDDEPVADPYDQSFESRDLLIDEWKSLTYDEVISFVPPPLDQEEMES
# Chain of DnaJ homolog subfamily A member 1 (P31689 whole entry): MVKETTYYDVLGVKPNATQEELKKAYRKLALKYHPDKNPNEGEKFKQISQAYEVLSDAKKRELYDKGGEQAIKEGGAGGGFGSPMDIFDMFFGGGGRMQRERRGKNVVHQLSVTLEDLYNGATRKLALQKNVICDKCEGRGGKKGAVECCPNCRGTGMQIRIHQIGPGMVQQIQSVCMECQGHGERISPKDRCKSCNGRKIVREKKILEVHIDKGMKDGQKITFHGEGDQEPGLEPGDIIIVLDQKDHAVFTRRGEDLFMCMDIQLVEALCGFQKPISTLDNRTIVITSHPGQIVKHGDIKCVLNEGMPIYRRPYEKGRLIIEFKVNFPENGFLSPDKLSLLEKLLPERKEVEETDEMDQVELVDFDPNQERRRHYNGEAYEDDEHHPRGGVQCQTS
# Chain of Mitogen-activated protein kinase kinase kinase kinase 4 (O95819 whole entry): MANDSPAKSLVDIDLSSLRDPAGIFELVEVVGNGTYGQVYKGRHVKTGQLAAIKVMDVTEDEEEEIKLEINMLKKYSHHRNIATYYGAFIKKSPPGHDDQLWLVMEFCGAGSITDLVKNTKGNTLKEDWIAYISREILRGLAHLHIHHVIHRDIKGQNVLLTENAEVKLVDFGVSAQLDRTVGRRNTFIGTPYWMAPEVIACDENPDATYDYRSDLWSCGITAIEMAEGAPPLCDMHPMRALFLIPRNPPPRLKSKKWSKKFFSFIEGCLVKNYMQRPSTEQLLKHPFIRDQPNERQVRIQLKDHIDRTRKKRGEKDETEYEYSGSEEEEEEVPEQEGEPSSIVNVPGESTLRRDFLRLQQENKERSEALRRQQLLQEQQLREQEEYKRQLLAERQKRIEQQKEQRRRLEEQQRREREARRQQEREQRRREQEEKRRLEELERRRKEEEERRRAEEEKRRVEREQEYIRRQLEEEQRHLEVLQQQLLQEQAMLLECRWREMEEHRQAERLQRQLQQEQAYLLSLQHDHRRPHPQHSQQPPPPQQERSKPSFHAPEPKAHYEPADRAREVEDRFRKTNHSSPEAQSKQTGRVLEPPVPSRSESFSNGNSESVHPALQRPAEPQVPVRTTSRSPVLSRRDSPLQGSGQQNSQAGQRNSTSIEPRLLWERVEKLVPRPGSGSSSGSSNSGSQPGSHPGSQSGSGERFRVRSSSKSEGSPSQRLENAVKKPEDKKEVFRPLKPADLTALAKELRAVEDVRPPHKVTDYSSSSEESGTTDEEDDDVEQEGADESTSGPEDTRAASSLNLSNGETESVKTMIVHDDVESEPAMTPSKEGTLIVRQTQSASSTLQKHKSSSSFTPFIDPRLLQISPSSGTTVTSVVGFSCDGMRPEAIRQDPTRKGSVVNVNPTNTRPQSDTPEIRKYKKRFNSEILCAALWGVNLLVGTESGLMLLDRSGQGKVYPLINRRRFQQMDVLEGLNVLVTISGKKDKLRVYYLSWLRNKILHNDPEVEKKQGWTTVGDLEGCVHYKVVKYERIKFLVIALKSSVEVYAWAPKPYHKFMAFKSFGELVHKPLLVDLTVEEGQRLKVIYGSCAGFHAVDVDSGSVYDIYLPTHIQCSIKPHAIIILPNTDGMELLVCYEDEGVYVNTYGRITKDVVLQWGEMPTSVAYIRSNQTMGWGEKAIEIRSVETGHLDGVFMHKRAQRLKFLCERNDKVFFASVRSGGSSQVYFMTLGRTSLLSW
# Chain of Serine/threonine-protein kinase B-raf (P15056 whole entry): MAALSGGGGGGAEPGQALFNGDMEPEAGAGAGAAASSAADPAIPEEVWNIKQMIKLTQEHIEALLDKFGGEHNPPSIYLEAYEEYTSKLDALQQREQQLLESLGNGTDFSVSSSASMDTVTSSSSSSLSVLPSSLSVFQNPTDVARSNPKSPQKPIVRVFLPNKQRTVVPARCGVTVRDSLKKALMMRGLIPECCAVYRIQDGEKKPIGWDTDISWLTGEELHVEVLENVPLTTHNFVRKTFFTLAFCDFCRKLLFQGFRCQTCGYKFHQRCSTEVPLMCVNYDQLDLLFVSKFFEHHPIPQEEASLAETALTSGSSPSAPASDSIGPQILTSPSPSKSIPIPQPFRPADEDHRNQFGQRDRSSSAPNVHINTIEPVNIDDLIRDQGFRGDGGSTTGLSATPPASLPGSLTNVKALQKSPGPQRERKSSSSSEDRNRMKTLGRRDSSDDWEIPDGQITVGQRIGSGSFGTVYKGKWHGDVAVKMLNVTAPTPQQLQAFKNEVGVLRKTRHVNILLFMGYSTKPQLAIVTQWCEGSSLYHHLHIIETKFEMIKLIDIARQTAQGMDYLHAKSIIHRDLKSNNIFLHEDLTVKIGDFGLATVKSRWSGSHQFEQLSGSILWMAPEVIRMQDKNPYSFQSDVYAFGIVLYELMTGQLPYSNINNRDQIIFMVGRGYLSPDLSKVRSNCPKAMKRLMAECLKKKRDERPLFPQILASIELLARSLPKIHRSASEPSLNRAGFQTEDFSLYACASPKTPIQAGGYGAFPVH
# Chain of Citron Rho-interacting kinase (O14578 whole entry): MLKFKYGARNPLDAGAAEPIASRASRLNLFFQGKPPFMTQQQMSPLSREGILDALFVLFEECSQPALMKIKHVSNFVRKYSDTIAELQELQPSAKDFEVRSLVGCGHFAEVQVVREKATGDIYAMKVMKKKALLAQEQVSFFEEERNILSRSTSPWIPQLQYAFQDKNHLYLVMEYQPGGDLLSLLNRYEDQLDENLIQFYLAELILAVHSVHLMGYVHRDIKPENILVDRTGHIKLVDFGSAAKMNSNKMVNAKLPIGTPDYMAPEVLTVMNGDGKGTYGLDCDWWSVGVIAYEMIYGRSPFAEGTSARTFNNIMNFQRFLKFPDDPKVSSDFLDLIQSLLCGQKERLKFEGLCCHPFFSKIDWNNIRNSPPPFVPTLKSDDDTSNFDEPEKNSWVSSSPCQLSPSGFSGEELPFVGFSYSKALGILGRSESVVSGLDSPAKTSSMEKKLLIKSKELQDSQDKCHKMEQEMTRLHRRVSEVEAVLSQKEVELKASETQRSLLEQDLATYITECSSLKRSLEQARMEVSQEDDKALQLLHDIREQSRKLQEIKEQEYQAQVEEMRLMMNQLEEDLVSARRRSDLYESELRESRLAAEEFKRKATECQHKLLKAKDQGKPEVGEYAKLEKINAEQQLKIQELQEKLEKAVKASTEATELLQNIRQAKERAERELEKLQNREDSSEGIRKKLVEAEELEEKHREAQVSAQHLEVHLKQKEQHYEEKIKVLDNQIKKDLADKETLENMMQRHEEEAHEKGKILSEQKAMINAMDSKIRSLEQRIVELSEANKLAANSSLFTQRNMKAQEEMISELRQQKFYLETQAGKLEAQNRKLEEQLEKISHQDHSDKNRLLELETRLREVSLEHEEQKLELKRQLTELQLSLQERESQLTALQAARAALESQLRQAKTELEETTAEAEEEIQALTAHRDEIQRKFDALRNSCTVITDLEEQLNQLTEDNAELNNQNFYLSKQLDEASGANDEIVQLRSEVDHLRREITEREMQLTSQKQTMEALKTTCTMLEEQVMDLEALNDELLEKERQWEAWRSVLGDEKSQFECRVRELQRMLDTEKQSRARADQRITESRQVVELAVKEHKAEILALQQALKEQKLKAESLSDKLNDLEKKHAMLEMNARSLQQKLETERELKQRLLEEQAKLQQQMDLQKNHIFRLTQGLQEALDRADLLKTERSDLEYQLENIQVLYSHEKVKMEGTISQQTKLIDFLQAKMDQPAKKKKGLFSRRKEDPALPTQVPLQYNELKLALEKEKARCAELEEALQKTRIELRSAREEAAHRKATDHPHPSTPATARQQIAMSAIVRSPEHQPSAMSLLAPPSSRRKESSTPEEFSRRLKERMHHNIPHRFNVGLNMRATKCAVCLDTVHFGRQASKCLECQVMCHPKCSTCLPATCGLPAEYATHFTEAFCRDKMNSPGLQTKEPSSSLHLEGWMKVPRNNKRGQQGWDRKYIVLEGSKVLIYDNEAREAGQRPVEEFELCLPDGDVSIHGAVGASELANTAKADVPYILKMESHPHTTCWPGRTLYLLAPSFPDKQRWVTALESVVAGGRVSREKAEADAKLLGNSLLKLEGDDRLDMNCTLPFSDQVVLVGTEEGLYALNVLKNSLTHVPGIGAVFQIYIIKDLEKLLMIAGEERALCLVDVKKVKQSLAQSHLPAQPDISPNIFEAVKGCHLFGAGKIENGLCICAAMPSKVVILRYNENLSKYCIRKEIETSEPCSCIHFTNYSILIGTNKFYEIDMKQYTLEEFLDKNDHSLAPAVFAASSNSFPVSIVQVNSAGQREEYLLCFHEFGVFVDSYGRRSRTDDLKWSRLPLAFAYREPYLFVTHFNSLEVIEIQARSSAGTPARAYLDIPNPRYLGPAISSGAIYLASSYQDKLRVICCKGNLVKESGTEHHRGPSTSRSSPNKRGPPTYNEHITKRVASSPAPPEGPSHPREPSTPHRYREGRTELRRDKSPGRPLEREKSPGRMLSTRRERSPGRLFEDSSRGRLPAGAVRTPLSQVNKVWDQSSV
Kd [1],Kd [2],Kd [3],Kd [4],Kd [5],Kd [6],Kd [7],Kd [8],Kd [9],Kd [10],Kd [11],Kd [12],SMILES
> 30 µM (inactive),> 30 µM (inactive),> 30 µM (inactive),> 30 µM (inactive),> 30 µM (inactive),> 30 µM (inactive),> 30 µM (inactive),> 30 µM (inactive),> 30 µM (inactive),> 30 µM (inactive),> 30 µM (inactive),–,CCNC(=O)C#Cc1ccc2c(c1)NC(=O)/C2=C(\Nc1ccc(CN(C)C)cc1)c1ccccc1
> 30 µM (inactive),> 30 µM (inactive),–,–,–,> 30 µM (inactive),–,–,–,–,> 30 µM (inactive),–,COc1cc(Nc2ncc3c(n2)-c2ccc(Cl)cc2C(c2c(F)cccc2OC)=NC3)ccc1C(=O)O [ALISERTIB]
> 30 µM (inactive),> 30 µM (inactive),> 30 µM (inactive),> 30 µM (inactive),> 30 µM (inactive),> 30 µM (inactive),> 30 µM (inactive),> 30 µM (inactive),> 30 µM (inactive),> 30 µM (inactive),> 30 µM (inactive),–,Cc1nc(NC(=O)N2CCC[C@H]2C(N)=O)sc1-c1ccnc(C(C)(C)C(F)(F)F)c1 [ALPELISIB]
> 30 µM (inactive),> 30 µM (inactive),> 30 µM (inactive),> 30 µM (inactive),> 30 µM (inactive),> 30 µM (inactive),> 30 µM (inactive),> 30 µM (inactive),> 30 µM (inactive),> 30 µM (inactive),> 30 µM (inactive),–,CCn1c(C(=O)N(C2CC2)C2CC2)cc2c3c(ncn3C)c(Nc3cc(C)n(C)n3)nc21 [BMS-911543]
> 30 µM (inactive),> 30 µM (inactive),> 30 µM (inactive),> 30 µM (inactive),–,> 30 µM (inactive),–,> 30 µM (inactive),> 30 µM (inactive),–,–,–,Cc1[nH]c(/C=C2\C(=O)Nc3ccccc32)c(C)c1CCC(=O)O [ORANTINIB]
10.8 µM (active),> 30 µM (inactive),> 30 µM (inactive),> 30 µM (inactive),–,> 30 µM (inactive),–,–,–,–,–,–,CC(=O)NCC(=O)N1[C@@H]2CC[C@H]1c1ccc(Nc3ncc(C(F)(F)F)c(NC4CCC4)n3)cc12 [PF-03814735]
0.113 µM (active),–,> 30 µM (inactive),> 30 µM (inactive),> 30 µM (inactive),> 30 µM (inactive),1.91 µM (active),> 30 µM (inactive),> 30 µM (inactive),> 30 µM (inactive),> 30 µM (inactive),> 30 µM (inactive),COc1cc2c(Nc3ccc(Cl)c(Cl)c3F)ncnc2cc1OC[C@@H]1C[C@@H]2CN(C)C[C@@H]2C1 [TESEVATINIB]
0.296 µM (active),–,> 30 µM (inactive),> 30 µM (inactive),> 30 µM (inactive),> 30 µM (inactive),> 30 µM (inactive),0.358 µM (active),> 30 µM (inactive),> 30 µM (inactive),> 30 µM (inactive),> 30 µM (inactive),C[C@@H](NC(=O)c1ncnc(N)c1Cl)c1ncc(C(=O)Nc2cc(C(F)(F)F)c(Cl)cn2)s1 [TOVORAFENIB]

SMILES,Kd [1],Kd [2],Kd [3],Kd [4],Kd [5],Kd [6],Kd [7],Kd [8],Kd [9],Kd [10],Kd [11],Kd [12]
NC(=O)Nc1cc(-c2cccc(F)c2)sc1C(=O)N[C@H]1CCCNC1 [AZD-7762],–,> 30 µM (inactive),> 30 µM (inactive),> 30 µM (inactive),> 30 µM (inactive),> 30 µM (inactive),0.035 µM (active),> 30 µM (inactive),> 30 µM (inactive),> 30 µM (inactive),–,–
Cc1cc(Nc2ncnc3ccc(NC4=NC(C)(C)CO4)cc23)ccc1Oc1ccn2ncnc2c1 [TUCATINIB],> 30 µM (inactive),–,> 30 µM (inactive),> 30 µM (inactive),> 30 µM (inactive),> 30 µM (inactive),> 30 µM (inactive),> 30 µM (inactive),> 30 µM (inactive),> 30 µM (inactive),> 30 µM (inactive),> 30 µM (inactive)
